Columns and labels:
Type in all cases: functional
NCI-H460 = experiment: Cytotoxicity against human NCI-H460 cells assessed as cell growth at 10 uM after 24 hrs by SRB assay; settings: NCI-H460, 24 h, read-out: Activity
[1] = Cytotoxicity against human HCC2998 cells assessed as cell growth at 10 uM after 24 hrs by SRB assay; settings: HCC 2998, 24 h, read-out: Activity
HT-29 = experiment: Cytotoxicity against human HT-29 cells assessed as cell growth at 10 uM after 24 hrs by SRB assay; settings: HT-29, 24 h, read-out: Activity
KM12 = experiment: Cytotoxicity against human KM12 cells assessed as cell growth at 10 uM after 24 hrs by SRB assay; settings: KM12, 24 h, read-out: Activity
[2] = Cytotoxicity against human SF268 cells assessed as cell growth at 10 uM after 24 hrs by SRB assay; settings: SF-268, 24 h, read-out: Activity
[3] = Cytotoxicity against human SF295 cells assessed as cell growth at 10 uM after 24 hrs by SRB assay; settings: SF-295, 24 h, read-out: Activity
[4] = Cytotoxicity against human SF539 cells assessed as cell growth at 10 uM after 24 hrs by SRB assay; settings: SF-539, 24 h, read-out: Activity
[5] = Cytotoxicity against human SNB19 cells assessed as cell growth at 10 uM after 24 hrs by SRB assay; settings: SNB-19, 24 h, read-out: Activity
[6] = Cytotoxicity against human SNB75 cells assessed as cell growth at 10 uM after 24 hrs by SRB assay; settings: SNB-75, 24 h, read-out: Activity
U-251 = experiment: Cytotoxicity against human U251 cells assessed as cell growth at 10 uM after 24 hrs by SRB assay; settings: U-251, 24 h, read-out: Activity
Malme-3M = experiment: Cytotoxicity against human MALME-3M cells assessed as cell growth at 10 uM after 24 hrs by SRB assay; settings: read-out: Activity
MDA-MB-435 = experiment: Cytotoxicity against human MDA-MB-435 cells assessed as cell growth at 10 uM after 24 hrs by SRB assay; settings: MDA-MB-435, 24 h, read-out: Activity
SK-MEL-2 = experiment: Cytotoxicity against human SK-MEL-2 cells assessed as cell growth at 10 uM after 24 hrs by SRB assay; settings: SK-MEL-2, 24 h, read-out: Activity
[7] = Cytotoxicity against human UACC62 cells assessed as cell growth at 10 uM after 24 hrs by SRB assay; settings: UACC-62, 24 h, read-out: Activity
[8] = Cytotoxicity against human IGROV1 cells assessed as cell growth at 10 uM after 24 hrs by SRB assay; settings: IGROV-1, 24 h, read-out: Activity
[9] = Cytotoxicity against human OVCAR3 cells assessed as cell growth at 10 uM after 24 hrs by SRB assay; settings: OVCAR-3, 24 h, read-out: Activity
[10] = Cytotoxicity against human OVCAR4 cells assessed as cell growth at 10 uM after 24 hrs by SRB assay; settings: OVCAR-4, 24 h, read-out: Activity
[11] = Cytotoxicity against human OVCAR5 cells assessed as cell growth at 10 uM after 24 hrs by SRB assay; settings: OVCAR-5, 24 h, read-out: Activity
[12] = Cytotoxicity against human OVCAR8 cells assessed as cell growth at 10 uM after 24 hrs by SRB assay; settings: OVCAR-8, 24 h, read-out: Activity
[13] = Cytotoxicity against human SKOV3 cells assessed as cell growth at 10 uM after 24 hrs by SRB assay; settings: SK-OV-3, 24 h, read-out: Activity
786-0 = experiment: Cytotoxicity against human 786-0 cells assessed as cell growth at 10 uM after 24 hrs by SRB assay; settings: 786-0, 24 h, read-out: Activity
A498 = experiment: Cytotoxicity against human A498 cells assessed as cell growth at 10 uM after 24 hrs by SRB assay; settings: A498, 24 h, read-out: Activity
[14] = Cytotoxicity against human Caki1 cells assessed as cell growth at 10 uM after 24 hrs by SRB assay; settings: CAKI-1, 24 h, read-out: Activity
[15] = Cytotoxicity against human RXF393 cells assessed as cell growth at 10 uM after 24 hrs by SRB assay; settings: RXF 393, 24 h, read-out: Activity
[16] = Cytotoxicity against human TK10 cells assessed as cell growth at 10 uM after 24 hrs by SRB assay; settings: TK-10, 24 h, read-out: Activity
[17] = Cytotoxicity against human PC3 cells assessed as cell growth at 10 uM after 24 hrs by SRB assay; settings: PC-3, 24 h, read-out: Activity
[18] = Cytotoxicity against human DU145 cells assessed as cell growth at 10 uM after 24 hrs by SRB assay; settings: DU-145, 24 h, read-out: Activity
MCF7 = experiment: Cytotoxicity against human MCF7 cells assessed as cell growth at 10 uM after 24 hrs by SRB assay; settings: MCF7, 24 h, read-out: Activity
MDA-MB-231 = experiment: Cytotoxicity against human MDA-MB-231 cells assessed as cell growth at 10 uM after 24 hrs by SRB assay; settings: MDA-MB-231, 24 h, read-out: Activity
MDA-MB-468 = experiment: Cytotoxicity against human MDA-MB-468 cells assessed as cell growth at 10 uM after 24 hrs by SRB assay; settings: MDA-MB-468, 24 h, read-out: Activity
[19] = Cytotoxicity against human NCI60 cells assessed as growth inhibition at 10 uM after 24 hrs by SRB assay; settings: NCI60, 24 h
CCRF-CEM = experiment: Cytotoxicity against human CCRF-CEM cells assessed as cell growth at 10 uM after 24 hrs by SRB assay; settings: read-out: Activity
[20] = Cytotoxicity against human HL-60(TB) cells assessed as cell growth at 10 uM after 24 hrs by SRB assay; settings: HL-60, 24 h, read-out: Activity
K562 = experiment: Cytotoxicity against human K562 cells assessed as cell growth at 10 uM after 24 hrs by SRB assay; settings: K562, 24 h, read-out: Activity
[21] = Cytotoxicity against human MOLT4 cells assessed as cell growth at 10 uM after 24 hrs by SRB assay; settings: MOLT-4, 24 h, read-out: Activity
[22] = Cytotoxicity against human RPMI8226 cells assessed as cell growth at 10 uM after 24 hrs by SRB assay; settings: RPMI-8226, 24 h, read-out: Activity
SR = experiment: Cytotoxicity against human SR cells assessed as cell growth at 10 uM after 24 hrs by SRB assay; settings: read-out: Activity
EKVX = experiment: Cytotoxicity against human EKVX cells assessed as cell growth at 10 uM after 24 hrs by SRB assay; settings: read-out: Activity
[23] = Cytotoxicity against human HOP62 cells assessed as cell growth at 10 uM after 24 hrs by SRB assay; settings: HOP-62, 24 h, read-out: Activity

Row | Structure (SMILES) | growth at 10 µM (NCI-H460) [%] | growth at 10 µM [1] [%] | growth at 10 µM (HT-29) [%] | growth at 10 µM (KM12) [%] | growth at 10 µM [2] [%] | growth at 10 µM [3] [%] | growth at 10 µM [4] [%] | growth at 10 µM [5] [%] | growth at 10 µM [6] [%] | growth at 10 µM (U-251) [%] | growth at 10 µM (Malme-3M) [%] | growth at 10 µM (MDA-MB-435) [%] | growth at 10 µM (SK-MEL-2) [%] | growth at 10 µM [7] [%] | growth at 10 µM [8] [%] | growth at 10 µM [9] [%] | growth at 10 µM [10] [%] | growth at 10 µM [11] [%] | growth at 10 µM [12] [%] | growth at 10 µM [13] [%] | further results
1 | COCCCNc1nc(NC(=O)c2cc(OC)cc(OC)c2)cc(-c2cccnc2)n1 | 95.2 | 110 | 95.5 | 103 | 100 | 100 | 88.9 | 98.3 | 73.1 | 96.8 | 112 | 100 | 78.8 | 111 | 102 | 113 | 108 | 95.7 | 79.3 | 105 | growth at 10 µM (786-0): 83.3%; growth at 10 µM (A498): 67.7%; growth at 10 µM [14]: 99.4%; growth at 10 µM [15]: 97.7%; growth at 10 µM [16]: 86.7%; growth at 10 µM [17]: 87.3%; growth at 10 µM [18]: 101%; growth at 10 µM (MCF7): 97.8%; growth at 10 µM (MDA-MB-231): 69.1%; growth at 10 µM (MDA-MB-468): 94.8%; inhibition at 10 µM [19]: 8.06%; growth at 10 µM (CCRF-CEM): 91.7%; growth at 10 µM [20]: 90.2%; growth at 10 µM (K562): 86.1%; growth at 10 µM [21]: 83.5%; growth at 10 µM [22]: 69.3%; growth at 10 µM (SR): 80.6%; growth at 10 µM (EKVX): 105%; growth at 10 µM [23]: 91.3%
2 | COc1cc(OC)cc(C(=O)Nc2cc(-c3cccnc3)nc(NCCCN3CCOCC3)n2)c1 | 95.3 | 123 | 85.2 | 104 | 94.1 | 101 | 91.1 | 98.7 | 109 | 90.5 | 110 | 102 | 84.1 | 97.6 | 97.4 | 105 | 117 | 100 | 91.8 | 93.9 | growth at 10 µM (786-0): 84%; growth at 10 µM (A498): 83.3%; growth at 10 µM [14]: 101%; growth at 10 µM [15]: 93.9%; growth at 10 µM [16]: 95.5%; growth at 10 µM [17]: 85.4%; growth at 10 µM [18]: 104%; growth at 10 µM (MCF7): 88%; growth at 10 µM (MDA-MB-231): 79.6%; growth at 10 µM (MDA-MB-468): 83.2%; inhibition at 10 µM [19]: 8.88%; growth at 10 µM (CCRF-CEM): 90.8%; growth at 10 µM [20]: 86.5%; growth at 10 µM (K562): 74.1%; growth at 10 µM [21]: 82.3%; growth at 10 µM [22]: 79.1%; growth at 10 µM (SR): 57.9%; growth at 10 µM (EKVX): 103%; growth at 10 µM [23]: 87.8%

Source: ChEMBL document CHEMBL3774345, “Synthesis of new diarylamides with pyrimidinyl pyridine scaffold and evaluation of their anti-proliferative effect on cancer cell lines” (Bioorg Med Chem Lett, 2016)
